Calls of active or inactive are those of the source.
How the values were obtained:
[1] = target: T1, Apoptotic protease-activating factor 1 (Homo sapiens, UniProt O14727); type: functional
T1 sequence (O14727 whole entry): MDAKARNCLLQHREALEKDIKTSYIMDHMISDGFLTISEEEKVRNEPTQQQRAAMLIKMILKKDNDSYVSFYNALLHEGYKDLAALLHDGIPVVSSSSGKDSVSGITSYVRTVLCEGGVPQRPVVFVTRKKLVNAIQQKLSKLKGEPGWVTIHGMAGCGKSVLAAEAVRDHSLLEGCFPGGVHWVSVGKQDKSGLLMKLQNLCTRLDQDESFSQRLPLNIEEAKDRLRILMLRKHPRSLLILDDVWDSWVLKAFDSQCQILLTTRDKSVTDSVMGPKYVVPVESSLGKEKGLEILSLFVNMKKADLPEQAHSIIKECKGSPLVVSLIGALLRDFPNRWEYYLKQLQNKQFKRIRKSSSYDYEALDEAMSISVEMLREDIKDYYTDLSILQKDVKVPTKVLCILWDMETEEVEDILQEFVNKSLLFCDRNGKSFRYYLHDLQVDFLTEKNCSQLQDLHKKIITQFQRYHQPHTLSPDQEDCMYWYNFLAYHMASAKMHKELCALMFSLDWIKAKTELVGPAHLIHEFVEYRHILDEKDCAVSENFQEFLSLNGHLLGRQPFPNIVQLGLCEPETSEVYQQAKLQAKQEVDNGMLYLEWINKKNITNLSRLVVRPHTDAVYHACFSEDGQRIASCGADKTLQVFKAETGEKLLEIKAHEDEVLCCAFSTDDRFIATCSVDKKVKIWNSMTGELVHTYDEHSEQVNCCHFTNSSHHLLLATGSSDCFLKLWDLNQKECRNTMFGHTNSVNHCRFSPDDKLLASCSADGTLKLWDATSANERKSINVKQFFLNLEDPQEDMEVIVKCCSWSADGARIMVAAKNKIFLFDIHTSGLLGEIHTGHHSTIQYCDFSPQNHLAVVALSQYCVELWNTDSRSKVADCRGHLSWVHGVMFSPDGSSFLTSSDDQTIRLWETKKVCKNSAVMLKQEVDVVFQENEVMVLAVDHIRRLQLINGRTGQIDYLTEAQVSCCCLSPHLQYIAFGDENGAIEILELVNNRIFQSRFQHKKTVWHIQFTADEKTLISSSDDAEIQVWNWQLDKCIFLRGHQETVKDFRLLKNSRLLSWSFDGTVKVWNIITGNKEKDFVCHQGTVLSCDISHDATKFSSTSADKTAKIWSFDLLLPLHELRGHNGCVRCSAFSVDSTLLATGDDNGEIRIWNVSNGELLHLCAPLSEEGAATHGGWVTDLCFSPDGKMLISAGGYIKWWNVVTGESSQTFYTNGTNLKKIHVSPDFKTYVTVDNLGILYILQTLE

[2] = target: T2, Protein RecA (Mycobacterium tuberculosis, UniProt P9WHJ3); assay: Fluorescence Cell-Free Homogeneous Dose Retest to Identify Inhibitors of RecA-Intein Splicing Activity. [Related pubchem assays (depositor defined):AID2097, AID2223, AID489010, AID492950]; type: functional
T2 sequence (P9WHJ3 whole entry): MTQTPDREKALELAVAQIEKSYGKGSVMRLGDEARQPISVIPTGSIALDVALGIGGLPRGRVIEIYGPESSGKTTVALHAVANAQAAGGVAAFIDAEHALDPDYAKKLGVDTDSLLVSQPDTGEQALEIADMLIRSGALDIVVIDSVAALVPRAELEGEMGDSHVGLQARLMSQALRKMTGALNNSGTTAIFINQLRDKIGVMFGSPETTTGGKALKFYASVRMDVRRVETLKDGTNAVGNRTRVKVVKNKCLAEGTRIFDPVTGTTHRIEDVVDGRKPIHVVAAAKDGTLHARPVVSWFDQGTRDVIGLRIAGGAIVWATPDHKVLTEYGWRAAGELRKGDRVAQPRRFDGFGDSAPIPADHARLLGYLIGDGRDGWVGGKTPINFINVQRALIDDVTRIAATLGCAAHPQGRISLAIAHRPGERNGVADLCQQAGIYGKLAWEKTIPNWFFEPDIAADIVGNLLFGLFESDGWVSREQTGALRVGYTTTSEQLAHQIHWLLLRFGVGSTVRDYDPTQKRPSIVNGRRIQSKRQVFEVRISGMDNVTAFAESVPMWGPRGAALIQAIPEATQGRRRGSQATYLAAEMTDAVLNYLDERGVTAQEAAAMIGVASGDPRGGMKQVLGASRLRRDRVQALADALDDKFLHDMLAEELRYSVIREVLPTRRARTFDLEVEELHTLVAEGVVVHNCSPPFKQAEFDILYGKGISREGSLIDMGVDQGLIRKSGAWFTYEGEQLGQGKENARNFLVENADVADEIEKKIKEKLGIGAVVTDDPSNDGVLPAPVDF

[3] = target: Phospholipase A2 (Homo sapiens, UniProt P04054); type: functional;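 further: confirmatory dose-response counterscreen on phospholipase A2, testing hits that came from an ultra-high-throughput screen for ATG4B inhibitors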
Phospholipase A2, sequence (P04054 whole entry): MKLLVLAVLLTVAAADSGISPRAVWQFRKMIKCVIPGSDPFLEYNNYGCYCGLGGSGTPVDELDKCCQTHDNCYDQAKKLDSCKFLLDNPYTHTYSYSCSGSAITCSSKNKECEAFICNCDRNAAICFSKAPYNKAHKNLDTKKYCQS

[4] = target: T3, Cysteine protease ATG4B (Homo sapiens, UniProt Q9Y4P1); type: functional;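 further: Fluorescence-based dose-response confirmation assay measuring inhibition of ATG4B activity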
T3 sequence (Q9Y4P1 whole entry): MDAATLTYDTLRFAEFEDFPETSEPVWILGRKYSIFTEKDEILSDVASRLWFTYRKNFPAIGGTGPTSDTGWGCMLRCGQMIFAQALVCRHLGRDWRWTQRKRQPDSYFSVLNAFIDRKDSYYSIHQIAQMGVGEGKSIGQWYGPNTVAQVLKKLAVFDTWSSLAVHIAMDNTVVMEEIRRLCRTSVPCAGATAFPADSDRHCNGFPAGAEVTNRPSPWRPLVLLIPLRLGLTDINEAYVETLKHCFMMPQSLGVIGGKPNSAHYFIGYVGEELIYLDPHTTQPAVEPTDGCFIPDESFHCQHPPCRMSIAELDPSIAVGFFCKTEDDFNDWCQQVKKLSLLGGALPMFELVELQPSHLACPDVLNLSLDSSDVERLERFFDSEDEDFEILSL

[5] = target: T4, Tyrosyl-DNA phosphodiesterase 2 (Homo sapiens, UniProt O95551); assay: human TDP2 enzyme inhibitors, dose response, biochemical, epi absorbance, IC50 (AID 743297)
T4 sequence (O95551 whole entry): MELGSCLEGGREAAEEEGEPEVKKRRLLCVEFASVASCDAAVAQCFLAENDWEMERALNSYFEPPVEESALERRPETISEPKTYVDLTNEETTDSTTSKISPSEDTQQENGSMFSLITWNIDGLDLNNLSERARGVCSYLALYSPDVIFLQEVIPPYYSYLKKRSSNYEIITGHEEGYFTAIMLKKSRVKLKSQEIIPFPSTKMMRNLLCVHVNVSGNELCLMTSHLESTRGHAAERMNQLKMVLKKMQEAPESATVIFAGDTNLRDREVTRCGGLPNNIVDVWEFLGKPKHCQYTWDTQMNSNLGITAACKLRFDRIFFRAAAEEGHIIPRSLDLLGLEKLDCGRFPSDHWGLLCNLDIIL

Which IC50 [1] does the source give for `O=C1c2ccccc2C(=O)c2[nH]c(O)nc21` here?
Its IC50 is 6.79 µM (active).

Which results are given for `N#Cc1c(N2CCCC2)nc(N)c2c(N)nc(N3CCCC3)cc12`?
EC50 [2]: 0.109 µM (active); IC50 [3]: 11.7 µM (active); IC50 [1]: 0.181 µM (active); IC50 [4]: 1.64 µM (active)

With `CCOC(=O)C1=C(C)OC2(O)c3ccccc3C(=O)C12O` (centres undefined) as the compound, how does the IC50 [5] read?
Its IC50 is 4.11 µM (active).

What about the IC50 [1] of the same compound?
Its IC50 is 2.55 µM (active).

For `COC(=O)c1cc(C)nc2c1C(=O)C(=O)C=C2N1CCOCC1`, which IC50 [5] is on record?
Its IC50 is 1.33 µM (active).

And the EC50 [2]?
The EC50 was 0.199 µM (active).

What about the IC50 [3] of the same compound?
Its IC50 is 65.6 µM (inactive).

And the IC50 [1]?
Its IC50 is 1.01 µM (active).

And the IC50 [4]?
The IC50 was 4.45 µM (active).

Which IC50 [3] does the source give for `NS(=O)(=O)c1cc(C(=O)NC2CCSc3ccccc32)ccc1Cl` (centres undefined) here?
Its IC50 is 24.1 µM (inactive).

What about the IC50 [4] of the same compound?
Its IC50 is 6.64 µM (active).
